Assay results: the NIST ThermoML archive (doi:10.1021/je700261b)

Assay: xn = mol fraction of the nth substance listed
Conditions: Liquid

CCCCO [butan-1-ol] + O=C=O
Conditions | mass density [kg/m3]
323.07 K, 16977 kPa, x2 = 0.0857 | 807.17
323.07 K, 18030 kPa, x2 = 0.0857 | 808.01
323.07 K, 18995 kPa, x2 = 0.0857 | 808.74
323.07 K, 19987 kPa, x2 = 0.0857 | 809.54
323.07 K, 21040 kPa, x2 = 0.0857 | 810.38
323.07 K, 21992 kPa, x2 = 0.0857 | 811.09
323.07 K, 23011 kPa, x2 = 0.0857 | 811.87
323.07 K, 24000 kPa, x2 = 0.0857 | 812.6
323.07 K, 25007 kPa, x2 = 0.0857 | 813.42
323.1 K, 10109 kPa, x2 = 0.4972 | 818.96
323.1 K, 11078 kPa, x2 = 0.4972 | 820.55
323.1 K, 11078 kPa, x2 = 0.5965 | 822.9
323.1 K, 12051 kPa, x2 = 0.4972 | 822.08
323.1 K, 12072 kPa, x2 = 0.5965 | 825.03
323.1 K, 12077 kPa, x2 = 0.8663 | 777.48
323.1 K, 13046 kPa, x2 = 0.8663 | 787.33
323.1 K, 13049 kPa, x2 = 0.4972 | 823.64
323.1 K, 13059 kPa, x2 = 0.5965 | 827.1
323.1 K, 14029 kPa, x2 = 0.8663 | 796.15
323.1 K, 14053 kPa, x2 = 0.4972 | 825.18
323.1 K, 14067 kPa, x2 = 0.5965 | 829.16
323.1 K, 15041 kPa, x2 = 0.4972 | 826.62
323.1 K, 15050 kPa, x2 = 0.8663 | 804.37
323.1 K, 15063 kPa, x2 = 0.5965 | 831.15
323.1 K, 16046 kPa, x2 = 0.5965 | 833.04
323.1 K, 16058 kPa, x2 = 0.4972 | 828.14
323.1 K, 16077 kPa, x2 = 0.8663 | 811.86
323.1 K, 17030 kPa, x2 = 0.5965 | 834.9
323.1 K, 17044 kPa, x2 = 0.8663 | 818.37
323.1 K, 17051 kPa, x2 = 0.4972 | 829.54
323.1 K, 18024 kPa, x2 = 0.8663 | 824.54
323.1 K, 18049 kPa, x2 = 0.5965 | 836.78
323.1 K, 18061 kPa, x2 = 0.4972 | 830.96
323.1 K, 19022 kPa, x2 = 0.4972 | 832.33
323.1 K, 19033 kPa, x2 = 0.8663 | 830.52
323.1 K, 19044 kPa, x2 = 0.5965 | 838.57
323.1 K, 20021 kPa, x2 = 0.4972 | 833.69
323.1 K, 20028 kPa, x2 = 0.8663 | 835.95
323.1 K, 20039 kPa, x2 = 0.5965 | 840.32
323.1 K, 21026 kPa, x2 = 0.8663 | 841.13
323.1 K, 21047 kPa, x2 = 0.4972 | 835.06
323.1 K, 21064 kPa, x2 = 0.5965 | 842.09
323.1 K, 22036 kPa, x2 = 0.4972 | 836.36
323.1 K, 22041 kPa, x2 = 0.5965 | 843.75
323.1 K, 22054 kPa, x2 = 0.8663 | 846.3
323.1 K, 23023 kPa, x2 = 0.5965 | 845.38
323.1 K, 23023 kPa, x2 = 0.8663 | 850.85
323.1 K, 23045 kPa, x2 = 0.4972 | 837.69
323.1 K, 23996 kPa, x2 = 0.4972 | 838.91
323.1 K, 24006 kPa, x2 = 0.8663 | 855.33
323.1 K, 24008 kPa, x2 = 0.5965 | 847
323.1 K, 25012 kPa, x2 = 0.4972 | 840.21
323.1 K, 25040 kPa, x2 = 0.5965 | 848.65
323.1 K, 25041 kPa, x2 = 0.8663 | 859.75
332.94 K, 1010 kPa, x2 = 0.0251 | 781.57
332.94 K, 2077 kPa, x2 = 0.0251 | 782.55
332.94 K, 3046 kPa, x2 = 0.0251 | 783.47
332.94 K, 3990 kPa, x2 = 0.0251 | 784.3
332.94 K, 5002 kPa, x2 = 0.0251 | 785.22
332.94 K, 6026 kPa, x2 = 0.0251 | 786.15
332.94 K, 6975 kPa, x2 = 0.0251 | 786.98
332.94 K, 8009 kPa, x2 = 0.0251 | 787.91
332.94 K, 9084 kPa, x2 = 0.0251 | 788.83
332.94 K, 9985 kPa, x2 = 0.0251 | 789.62
332.94 K, 11024 kPa, x2 = 0.0251 | 790.52
332.94 K, 12040 kPa, x2 = 0.0251 | 791.34
332.94 K, 12968 kPa, x2 = 0.0251 | 792.12
332.94 K, 12999 kPa, x2 = 0.9698 | 600.03
332.94 K, 13994 kPa, x2 = 0.0251 | 792.95
332.94 K, 14036 kPa, x2 = 0.9698 | 638.84
332.94 K, 15021 kPa, x2 = 0.9698 | 667.05
332.94 K, 15041 kPa, x2 = 0.0251 | 793.85
332.94 K, 16014 kPa, x2 = 0.9698 | 689.92
332.94 K, 16061 kPa, x2 = 0.0251 | 794.54
332.94 K, 17001 kPa, x2 = 0.0251 | 795.37
332.94 K, 17022 kPa, x2 = 0.9698 | 709.37
332.94 K, 18009 kPa, x2 = 0.9698 | 725.81
332.94 K, 18031 kPa, x2 = 0.0251 | 796.18
332.94 K, 19010 kPa, x2 = 0.9698 | 740.47
332.94 K, 19042 kPa, x2 = 0.0251 | 796.95
332.94 K, 20027 kPa, x2 = 0.0251 | 797.73
332.94 K, 20028 kPa, x2 = 0.9698 | 753.7
332.94 K, 20987 kPa, x2 = 0.0251 | 798.46
332.94 K, 21042 kPa, x2 = 0.9698 | 765.72
332.94 K, 21997 kPa, x2 = 0.9698 | 776.05
332.94 K, 22013 kPa, x2 = 0.0251 | 799.22
332.94 K, 22983 kPa, x2 = 0.9698 | 785.85
332.94 K, 23023 kPa, x2 = 0.0251 | 800
332.94 K, 23838 kPa, x2 = 0.9698 | 793.78
332.94 K, 24078 kPa, x2 = 0.0251 | 800.8
332.94 K, 25033 kPa, x2 = 0.0251 | 801.51
332.96 K, 2025 kPa, x2 = 0.0857 | 785.34
332.96 K, 3025 kPa, x2 = 0.0857 | 786.35
332.96 K, 3995 kPa, x2 = 0.0857 | 787.3
332.96 K, 5006 kPa, x2 = 0.0857 | 788.3
332.96 K, 6029 kPa, x2 = 0.0857 | 789.27
332.96 K, 6996 kPa, x2 = 0.0857 | 790.2
332.96 K, 8001 kPa, x2 = 0.0857 | 791.2
332.96 K, 9060 kPa, x2 = 0.0857 | 792.17
332.96 K, 10005 kPa, x2 = 0.0857 | 793.04
332.96 K, 11020 kPa, x2 = 0.0857 | 793.96
332.96 K, 12043 kPa, x2 = 0.0857 | 794.89
332.96 K, 13021 kPa, x2 = 0.0857 | 795.74
332.96 K, 14023 kPa, x2 = 0.0857 | 796.64
332.96 K, 15013 kPa, x2 = 0.0857 | 797.55
332.96 K, 15989 kPa, x2 = 0.0857 | 798.3
332.96 K, 17015 kPa, x2 = 0.0857 | 799.17
332.96 K, 18001 kPa, x2 = 0.0857 | 799.98
332.96 K, 18996 kPa, x2 = 0.0857 | 800.8
332.96 K, 20012 kPa, x2 = 0.0857 | 801.65
332.96 K, 21010 kPa, x2 = 0.0857 | 802.47
332.96 K, 22025 kPa, x2 = 0.0857 | 803.27
332.96 K, 22983 kPa, x2 = 0.0857 | 804.05
332.96 K, 24061 kPa, x2 = 0.0857 | 804.91
332.96 K, 25000 kPa, x2 = 0.0857 | 805.68
332.99 K, 11100 kPa, x2 = 0.4972 | 807.58
332.99 K, 12062 kPa, x2 = 0.4972 | 809.21
332.99 K, 13082 kPa, x2 = 0.4972 | 810.88
332.99 K, 14087 kPa, x2 = 0.8663 | 752.33
332.99 K, 14115 kPa, x2 = 0.4972 | 812.58
332.99 K, 15053 kPa, x2 = 0.8663 | 762.95
332.99 K, 15061 kPa, x2 = 0.4972 | 814.12
332.99 K, 16035 kPa, x2 = 0.4972 | 815.66
332.99 K, 16081 kPa, x2 = 0.8663 | 772.94
332.99 K, 17073 kPa, x2 = 0.8663 | 781.43
332.99 K, 17108 kPa, x2 = 0.4972 | 817.32
332.99 K, 18040 kPa, x2 = 0.4972 | 818.75
332.99 K, 18052 kPa, x2 = 0.8663 | 789.26
332.99 K, 19036 kPa, x2 = 0.4972 | 820.22
332.99 K, 19049 kPa, x2 = 0.8663 | 796.49
332.99 K, 20021 kPa, x2 = 0.8663 | 803.04
332.99 K, 20051 kPa, x2 = 0.4972 | 821.73
332.99 K, 21046 kPa, x2 = 0.8663 | 809.49
332.99 K, 21048 kPa, x2 = 0.4972 | 823.17
332.99 K, 22048 kPa, x2 = 0.4972 | 824.6
332.99 K, 22064 kPa, x2 = 0.8663 | 815.51
332.99 K, 23005 kPa, x2 = 0.8663 | 820.74
332.99 K, 23047 kPa, x2 = 0.4972 | 826
332.99 K, 24018 kPa, x2 = 0.4972 | 827.36
332.99 K, 24028 kPa, x2 = 0.8663 | 826.19
332.99 K, 25056 kPa, x2 = 0.4972 | 828.77
332.99 K, 25067 kPa, x2 = 0.8663 | 831.43
333 K, 12077 kPa, x2 = 0.5965 | 809.05
333 K, 13047 kPa, x2 = 0.5965 | 811.32
333 K, 14101 kPa, x2 = 0.5965 | 813.7
333 K, 15079 kPa, x2 = 0.5965 | 815.86
333 K, 16069 kPa, x2 = 0.5965 | 817.96
333 K, 17045 kPa, x2 = 0.5965 | 820
333 K, 18064 kPa, x2 = 0.5965 | 822.1
333 K, 19045 kPa, x2 = 0.5965 | 824.02
333 K, 20044 kPa, x2 = 0.5965 | 825.94
333 K, 21039 kPa, x2 = 0.5965 | 827.8
333 K, 22043 kPa, x2 = 0.5965 | 829.66
333 K, 23048 kPa, x2 = 0.5965 | 831.48
333 K, 24011 kPa, x2 = 0.5965 | 833.21
333 K, 25086 kPa, x2 = 0.5965 | 835.1
333.08 K, 6035 kPa, x2 = 0.1842 | 792
333.08 K, 7047 kPa, x2 = 0.1842 | 793.11
333.08 K, 8021 kPa, x2 = 0.1842 | 794.16
333.08 K, 9035 kPa, x2 = 0.1842 | 795.25
333.08 K, 10030 kPa, x2 = 0.1842 | 796.3
333.08 K, 11057 kPa, x2 = 0.1842 | 797.37
333.08 K, 12025 kPa, x2 = 0.1842 | 798.41
333.08 K, 13041 kPa, x2 = 0.1842 | 799.39
333.08 K, 14034 kPa, x2 = 0.1842 | 800.34
333.08 K, 15074 kPa, x2 = 0.1842 | 801.36
333.08 K, 16022 kPa, x2 = 0.1842 | 802.27
